Consider 24 molecules from patent US20190292167A1, “HETEROAROMATIC COMPOUNDS USEFUL FOR THE TREATMENT OF PROLIFERATIVE DISEASES” (Syros Pharmaceuticals, Inc., priority 2013, published 2019).

One assay has as its system Jurkat. Nature of the assay: Inhibition of cell proliferation, CellTiter-Glo, 72 hour. In kind it is cell-based. To be noted: read-out: Inhibition of Proliferation of Jurkat Cells. Here is the method: The following cancer cell lines were tested with the media conditions indicated: […]
The target in the next assay is T1, CDK7 (Homo sapiens, UniProt P50613).
T1 construct: purchased Life Technologies (Adapta kinase assay service)
The experiment in a line: Adapta kinase assay (Life Technologies) against CDK7, co-factors cyclin H and MNAT1. In kind it is biochemical. To be noted: read-out: CDK7 Inhibition. Here is the method:
Compounds of the invention were assayed for activity against CDK7 at Life Technologies™ (Grand Island, N.Y.) using their commercially available Adapta® kinase assay services. […] Details of the assay, including the substrate used for CDK7 kinase, are available on the Life Technologies web site (http://www.lifetechnologies.com/us/en/homellife-science/drug-discovery/target-and-lead-identification-and-validation/kinasebiology/kinase-activity-assays.html).
The co-factors used for the assay were cyclin H and MNAT1.

Setting [1] is: Homo sapiens, Jurkat, 72 h, Blood cancer cell line, 72 hour.

The structures appear in SMILES notation. Where two headings read alike, the source gives them in different places. Where only a bound is given, the exact number is not on record here.

T1 sequence (P50613 whole entry): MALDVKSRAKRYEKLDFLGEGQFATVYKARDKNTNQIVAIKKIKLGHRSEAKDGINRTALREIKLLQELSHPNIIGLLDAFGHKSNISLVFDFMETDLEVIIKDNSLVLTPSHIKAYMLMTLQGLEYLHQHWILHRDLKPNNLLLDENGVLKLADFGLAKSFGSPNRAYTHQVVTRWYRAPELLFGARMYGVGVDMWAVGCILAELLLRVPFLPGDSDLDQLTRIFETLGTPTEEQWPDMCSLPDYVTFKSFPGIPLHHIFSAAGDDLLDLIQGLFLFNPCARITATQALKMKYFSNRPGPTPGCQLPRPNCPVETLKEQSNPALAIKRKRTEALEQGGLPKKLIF
T1 sequence (P51946 whole entry partner): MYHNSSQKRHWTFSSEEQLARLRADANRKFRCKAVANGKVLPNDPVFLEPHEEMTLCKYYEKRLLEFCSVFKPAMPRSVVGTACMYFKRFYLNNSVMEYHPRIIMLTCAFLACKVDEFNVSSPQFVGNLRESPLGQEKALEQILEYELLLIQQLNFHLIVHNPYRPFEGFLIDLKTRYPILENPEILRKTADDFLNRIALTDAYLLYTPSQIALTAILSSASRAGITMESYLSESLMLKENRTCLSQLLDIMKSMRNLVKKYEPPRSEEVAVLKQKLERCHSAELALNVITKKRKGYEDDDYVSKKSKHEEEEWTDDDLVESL
T1 sequence (P51948 whole entry partner): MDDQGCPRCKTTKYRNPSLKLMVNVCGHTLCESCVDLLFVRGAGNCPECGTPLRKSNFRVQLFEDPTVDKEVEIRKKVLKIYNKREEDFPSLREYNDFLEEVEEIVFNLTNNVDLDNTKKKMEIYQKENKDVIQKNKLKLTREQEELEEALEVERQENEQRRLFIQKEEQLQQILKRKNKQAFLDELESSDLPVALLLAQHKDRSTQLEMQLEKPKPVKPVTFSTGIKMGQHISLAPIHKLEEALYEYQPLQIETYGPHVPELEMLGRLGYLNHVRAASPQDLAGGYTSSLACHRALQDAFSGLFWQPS

For the molecule `CN(C)C/C=C/C(=O)Nc1ccc(C(=O)N2CCC(Nc3ncc(Cl)c(-c4cccnc4)n3)CC2)cc1` [Compound 118, (E)-N-(4-(4-((5-chloro-4-(pyridin-3-yl)pyrimidin-2-yl)amino)piperidine-1-carbonyl)phenyl)-4-(dimethylamino)but-2-enamide], the IC50 in the assay with Jurkat (setting [1]) lay within 500 to 5000 nM; on CDK7, 100 to 1000 nM. Turning to `CS(=O)(=O)NC/C=C/C(=O)Nc1ccc(CN2CCC(Nc3ncc(Cl)c(-c4c[nH]c5ccccc45)n3)CC2)cc1` [Compound 158, (E)-N-(4-((4-((5-chloro-4-(1H-indol-3-yl)pyrimidin-2-yl)amino)piperidin-1-yl)methyl)phenyl)-4-(methylsulfonamido)but-2-enamide], the IC50 on CDK7 lay within 100 to 1000 nM. In the case of `CN(C)C/C=C/C(=O)Nc1ccc(C(=O)N[C@@H]2CC[C@H](Nc3ncc(Cl)c(-c4c[nH]c5ccccc45)n3)C2)cc1` [Compound 129, N-((1R,3S)-3-((5-chloro-4-(1H-indol-3-yl)pyrimidin-2-yl)amino)cyclopentyl)-4-((E)-4-(dimethylamino)but-2-enamido)benzamide], the IC50 with Jurkat (setting [1]) is less than 500 nM; on CDK7, less than 100 nM. Regarding `CN(C)CC=CC(=O)Nc1ccc(C(=O)NC2CNCC(Nc3ncc(Cl)c(-c4c[nH]c5ccccc45)n3)C2)cc1` (racemic) [Compound 150, N-((+/−trans)-5-((5-chloro-4-(1H-indol-3-yl)pyrimidin-2-yl)amino)piperidin-3-yl)-4-((E)-4-(dimethylamino)but-2-enamido)benzamide], the IC50 is less than 500 nM in the assay on Jurkat (Blood cancer cell line, 72 hour) and less than 100 nM on CDK7. Consider `CN(C)C/C=C/C(=O)Nc1ccc(C(=O)N[C@@H]2CC[C@H](Nc3ncc(Cl)c(-c4cccnc4)n3)C2)cc1` (racemic) [Compound 123, N-((1R,3S)-3-((5-chloro-4-(pyridin-3-yl)pyrimidin-2-yl)amino)cyclopentyl)-4-((E)-4-(dimethylamino)but-2-enamido)benzamide and N-((1S,3R)-3-((5-chloro-4-(pyridin-3-yl)pyrimidin-2-yl)amino)cyclopentyl)-4-((E)-4-(dimethylamino)but-2-enamido)benzamide], for which the IC50 in the assay on Jurkat (setting [1]) is less than 500 nM; on CDK7, 100 to 1000 nM.

For the molecule `Nc1ccc(C(=O)N2CC[C@@H](Nc3ncc(Cl)c(-c4c[nH]c5ccccc45)n3)C2)cc1` [Compound 35, (4-aminophenyl)((R)-3-(5-chloro-4-(1H-indol-3-yl)pyrimidin-2-ylamino)pyrrolidin-1-yl)methanone], the IC50 in the assay on Jurkat (setting [1]) was 500 to 5000 nM; on CDK7 it was less than 100 nM. On the same counts, the results for `C=CC(=O)Nc1ccc(NC(=O)[C@H]2CNCC(Nc3ncc(Cl)c(-c4c[nH]c5ccccc45)n3)C2)cc1` (mixture of isomers) [Compound 154, (+/−trans)-N-(4-acrylamidophenyl)-5-((5-chloro-4-(1H-indol-3-yl)pyrimidin-2-yl)amino)piperidine-3-carboxamide] are less than 500 nM and less than 100 nM. On the same counts, the results for `COc1ccc(Cn2c(-c3ccc(NC(=O)/C=C/CN(C)C)cc3)nc3cc(Nc4ncc(Cl)c(-c5c[nH]c6ccccc56)n4)ccc32)cc1` [Compound 133, (E)-N-(4-(5-(5-chloro-4-(1H-indol-3-yl)pyrimidin-2-ylamino)-1-(4-methoxybenzyl)-1H-benzo[d]imidazol-2-yl)phenyl)-4-(dimethylamino)but-2-enamide] are 500 to 5000 nM and 100 to 1000 nM. On to `N#Cc1cnc(N[C@@H]2CCN(C(=O)c3ccc(NC(=O)/C=C/Cn4ccnc4)cc3)C2)nc1-c1c[nH]c2ccccc12` [Compound 109, (E)-N-(4-((R)-3-(5-cyano-4-(1H-indol-3-yl)pyrimidin-2-ylamino)pyrrolidine-1-carbonyl)phenyl)-4-(1H-imidazol-1-yl)but-2-enamide], for which the IC50 is less than 500 nM in the assay with Jurkat (Homo sapiens, Jurkat, 72 h) and less than 100 nM on CDK7. As for `N#Cc1cnc(NC2CCN(C(=O)c3ccc(N)cc3)CC2)nc1-c1c[nH]c2ccccc12` [Compound 26, 2-(1-(4-aminobenzoyl)piperidin-4-ylamino)-4-(1H-indol-3-yl)pyrimidine-5-carbonitrile], the IC50 with Jurkat (setting [1]) was in the range of 500 to 5000 nM; at CDK7 it was 100 to 1000 nM. In the same order, the values of `CN(C/C=C/C(=O)Nc1ccc(CN2CCC(Nc3ncc(Cl)c(-c4c[nH]c5ccccc45)n3)CC2)cc1)CC(O)CO` (stereo not drawn) [Compound 143, (E)-N-(4-((4-((5-chloro-4-(1H-indol-3-yl)pyrimidin-2-yl)amino)piperidin-1-yl)methyl)phenyl)-4-((2,3-dihydroxypropyl)(methyl)amino)but-2-enamide] are less than 500 nM and less than 100 nM. In the same order, the values of `CN(C)C/C=C/C(=O)NCC(=O)Nc1cccc(Nc2ncc(Cl)c(-c3c[nH]c4ccccc34)n2)c1` [Compound 137, (E)-N-(2-(3-(5-chloro-4-(1H-indol-3-yl)pyrimidin-2-ylamino)phenylamino)-2-oxoethyl)-4-(dimethylamino)but-2-enamide] are 500 to 5000 nM and less than 100 nM. On the same counts, the results for `CN(C)C/C=C/C(=O)Nc1ccc(S(=O)(=O)N2CC[C@@H](Nc3ncc(Cl)c(-c4c[nH]c5ccccc45)n3)C2)cc1` [Compound 105, (E)-N-(4-((R)-3-(5-chloro-4-(1H-indol-3-yl)pyrimidin-2-ylamino)pyrrolidin-1-ylsulfonyl)phenyl)-4-(dimethylamino)but-2-enamide] are 500 to 5000 nM and less than 100 nM. Take `CC(=O)Nc1ccc(CN2CCC(Nc3ncc(Cl)c(-c4c[nH]c5ccccc45)n3)CC2)cc1` [Compound 47, N-(4-((4-(5-chloro-4-(1H-indol-3-yl)pyrimidin-2-ylamino)piperidin-1-yl)methyl)phenyl)acetamide]: the figures for the IC50 in the assay with Jurkat (setting [1]) and at CDK7 were 500 to 5000 nM and 100 to 1000 nM, respectively. In the same order, the values of `CN(C)C/C=C/C(=O)Nc1ccc(C(=O)N2CCC(Nc3ncc(Cl)c(-c4c[nH]cn4)n3)CC2)cc1` [Compound 127, (E)-N-(4-(4-((5-chloro-4-(1H-imidazol-4-yl)pyrimidin-2-yl)amino)piperidine-1-carbonyl)phenyl)-4-(dimethylamino)but-2-enamide] are more than 5000 nM and 100 to 1000 nM. In the same order, the values of `CN(C/C=C/C(=O)Nc1ccc(CN2CCC(Nc3ncc(Cl)c(-c4c[nH]c5ccccc45)n3)CC2)cc1)CC(N)=O` [Compound 146, (E)-4-((2-amino-2-oxoethyl)(methyl)amino)-N-(4-((4-((5-chloro-4-(1H-indol-3-yl)pyrimidin-2-yl)amino)piperidin-1-yl)methyl)phenyl)but-2-enamide] are more than 5000 nM and less than 100 nM. On the same counts, the results for `C=CC(=O)Nc1ccc(CNC(=O)C2CC(Nc3ncc(Cl)c(-c4c[nH]c5ccccc45)n3)CN(C)C2)cc1` (racemic) [Compound 157, (+/−cis)-N-(4-acrylamidobenzyl)-5-((5-chloro-4-(1H-indol-3-yl)pyrimidin-2-yl)amino)-1-methylpiperidine-3-carboxamide] are less than 500 nM and less than 100 nM. In the case of `CN(C)C/C=C/C(=O)Nc1cccc(CN2CCC(Nc3ncc(Cl)c(-c4c[nH]c5ccccc45)n3)CC2)c1` [Compound 141, (E)-N-[3-[[4-[[5-chloro-4-(1H-indol-3-yl)pyrimidin-2-yl]amino]-1-piperidyl]methyl]phenyl]-4-(dimethylamino)but-2-enamide], the IC50 is less than 500 nM in the assay on Jurkat (setting [1]) and less than 100 nM on CDK7. In the same order, the values of `CN(C)C/C=C/C(=O)Nc1ccc(CN2CC[C@@H](Nc3ncc(Cl)c(-c4c[nH]c5ccccc45)n3)C2)cc1` [Compound 144, (R,E)-N-(4-((3-((5-chloro-4-(1H-indol-3-yl)pyrimidin-2-yl)amino)pyrrolidin-1-yl)methyl)phenyl)-4-(dimethylamino)but-2-enamide (E)-4-(dimethylamino)but-2-enoate] are less than 500 nM and less than 100 nM.

Take `C=CC(=O)Nc1ccc(NC(=O)[C@@H]2C[C@@H](Nc3ncc(Cl)c(-c4c[nH]c5ccccc45)n3)CN(C)C2)cc1` (relative stereo) [Compound 159, (Trans)-N-(4-acrylamidophenyl)-5-((5-chloro-4-(1H-indol-3-yl)pyrimidin-2-yl)amino)-1-methylpiperidine-3-carboxamide]: the IC50 on CDK7 was in the range of 100 to 1000 nM.

Take `Nc1ccc(C(=O)NC2CC3(C2)CC(Nc2ncc(Cl)c(-c4c[nH]c5ccccc45)n2)C3)cc1` (stereo not drawn) [Compound 318, 4-amino-N-(6-((5-chloro-4-(1H-indol-3-yl)pyrimidin-2-yl)amino)spiro[3.3]heptan-2-yl)benzamide]: the IC50 with Jurkat (setting [1]) is more than 5000 nM. With `C=CC(=O)Nc1ccc(NC(=O)[C@H]2C[C@@H](Nc3ncc(Cl)c(-c4c[nH]c5ccccc45)n3)CN(C)C2)cc1` (relative stereo) [Compound 160, (Cis)-N-(4-acrylamidophenyl)-5-((5-chloro-4-(1H-indol-3-yl)pyrimidin-2-yl)amino)-1-methylpiperidine-3-carboxamide], the IC50 at CDK7 is less than 100 nM. For `CN(C)C/C=C/C(=O)Nc1ccc(C(=O)N[C@H]2CC[C@@H](Nc3ncc(Cl)c(-c4c[nH]c5ccccc45)n3)C2)cc1` [Compound 130, N-((1S,3R)-3-((5-chloro-4-(1H-indol-3-yl)pyrimidin-2-yl)amino)cyclopentyl)-4-((E)-4-(dimethylamino)but-2-enamido)benzamide], in the assay with Jurkat (setting [1]), the IC50 was less than 500 nM.

For the molecule `CN(C)C/C=C/C(=O)Nc1ccc(C(=O)N[C@H]2C[C@@H](Nc3ncc(Cl)c(-c4c[nH]c5ccccc45)n3)CN(C)C2)cc1` (racemic) [161/162, N-[(3S)-5-[[5-chloro-4-(1H-indol-3-yl)pyrimidin-2-yl]amino]-1-methyl-3-piperidyl]-4-[[(E)-4-(dimethylamino)but-2-enoyl]amino]benzamide], the IC50 on CDK7 was less than 100 nM.
